From US6426355B1, “Heterocyclic carboxamide-containing thiourea inhibitors of herpes viruses containing phenylenediamine group” (American Home Products, priority 1998, dated 2002)
≈ marks a conversion by molar mass, not a printed value.

What was measured:
[1] = system: HSV-1; test: HSV Antiviral (ELISA) assay; assay type: cell-based; conditions: for IC50 (ug/ml) HSV: HSV-1 in Vero cells
Protocol: Vero cells (ATCC #CCL-81) are plated on 96-well tissue culture plates at 3.5×10^4 cells per 100 μl tissue culture DMEM (Dulbecco's modified Eagle media) supplemented with 2% fetal bovine serum (FBS) in each well. After overnight incubation @ 37° C. (in 5% CO2) and 30 minutes prior to infection with HSV-1 (multiplicity of infection equal to 0.006), cells are either untreated, or treated with test compound (multiple concentrations) or reference standard drug control. After approximately 24 hours post-infection incubation @ 37° C. (in 5% CO2), cells are fixed for ELISA assay. The primary antibody is murine anti-HSV glycoprotein D monoclonal primary antibody and the secondary antibody is goat anti-mouse IgG linked to β-galactosidase. Thus the extent of viral replication is determined by assessing β-galactosidase activity by quantifying the generation of the 4-methyl umbelliferone fluorescent cleavage product after addition of the methyl umbelliferyl-β-D-galactoside (Sigma #M1633) substrate on a microfluorimeter (365 nm for excitation and 450 nm for emission). Antiviral activity (IC50) of the test compound is determined by comparing the flourescence obtained in absence of compound to that obtained in the presence of compound.

[2] = system: HCMV recombinant mutant virus (RV145); test: HCMV microtiter plate assay (beta-glucuronidase reporter); assay type: cell-based, Human Cytomegalovirus; conditions: for IC50: Human betaherpesvirus 5, Fibroblast, read-out: IC50 (ug/ml) HCMV; for IC50 (ug/ml) HCMV: HCMV in human foreskin fibroblasts
Description: Ninety-six well plate cultures of human foreskin fibroblasts are infected in the presence of inhibitor compound with a HCMV recombinant mutant virus whose genome contains the prokaryotic beta-glucuronidase gene (Jefferson, R. A., S. M. Burgess, and D. Hirsh. 1986. Beta-glucuronidase from Escherichia coli as a gene fusion marker. Proc. Natl. Acad. Sci. USA 83:8447-8451) whose expression is controlled by a viral promoter. An example of such a virus is RV145 (Jones, T. R., V. P. Muzithras, and Y. Gluzman. 1991. Replacement mutagenesis of the human cytomegalovirus genome: US10 and US11 gene products are nonessential. J. Virol. 65:5860-5872). Since it is under the control of a viral promoter, beta-glucuronidase expression is an indirect indicator of growth and replication of HCMV in this assay. At 96 hours post-infection, the infected cell lysates are prepared (using 50 mM sodium phosphate [pH7.0] containing 0.1% Triton X-100 and 0.1% sarkosyl) and assayed for beta-glucuronidase activity using a substrate for the enzyme which when cleaved yields either a product which can be measured colorimetrically in a spectrophotometer or fluorescently in a microfluorimeter. Examples of such substrates are p-nitrophenyl-beta-D-glucuronide and methylumbelliferylglucuronide, respectively. The presence of an antiviral compound is indicated by the reduced expression of the HCMV genome resident beta-glucuronidase gene, compared to the absence of inhibitor. […] Data from this assay generated using varying amounts of inhibitor compound is also used to estimate the IC50 of an inhibitor compound.

[3] = system: VZV strain Ellen; test: VZV Antiviral (ELISA) assay; assay type: cell-based; conditions: for IC50 (ug/ml) VZV: VZV strain Ellen in HFF cells; for inhibition at 10 µg/mL: Human alphaherpesvirus 3, read-out: % inhibition 10 ug/ml VZV, at 10 ug/ml, VZV strain Ellen in HFF cells
Protocol: For the generation of stock VZV to be used in the assay, VZV strain Ellen (ATCC #VR-1367) is used to infect human foreskin fibroblast (HFF) cells at low multiplicity (less than 0.1) and incubated overnight at 37° C. in 5% CO2. After the overnight incubation, the mixture of uninfected and VZV-infected HFF infected cells are then harvested and added to each well of 96-well plates (3.5×10^4 cells in 100 μl DMEM supplemented with 2% FBS) which contain test compound or the reference standard drug control (in 100 μl DMEM supplemented with 2% FBS per well). These cells are incubated for three days at 37° C. in 5% CO2, then fixed for ELISA assay. The primary antibody is murine anti-VZV glycoprotein II monoclonal antibody (Applied Biosystems, Inc. #13-145-100) and the secondary antibody is goat anti-mouse IgG linked to β-galactosidase. Thus the extent of viral replication is determined by assessing β-galactosidase activity by quantifying the generation of the 4-methyl umbelliferone fluorescent cleavage product after addition of the methyl umbelliferyl-β-D-galactoside (Sigma #M1633) substrate on a microfluorimeter (365 nm for excitation and 450 nm for emission). Antiviral activity (IC50) of the test compound is determined by comparing the flourescence obtained in absence of compound to that obtained in the presence of compound.

SMILES | IC50 (ug/ml) HSV [1] [µg/mL] | IC50 (ug/ml) HCMV [2] [µg/mL] | IC50 (ug/ml) VZV [3] [µg/mL] | also measured
O=C(NCc1ccc(Cl)c(Cl)c1)Nc1ccc(NC(=O)c2csnn2)cc1 [Example 90, [1,2,3]Thiadiazole-4-carboxylic acid {4-[3-(3,4-dichloro-benzyl)-ureido]-phenyl}-amide] |  |  |  | IC50 ([1]; Human alphaherpesvirus 1, HSV-1 in Vero cells, read-out: IC50 (ug/ml) HSV): > 10 µg/mL; IC50 [2]: 0.07 µg/mL (≈ 166 nM)
COc1cc(OC)c(NC(=S)Nc2ccc(NC(=O)c3cnccn3)cc2)cc1Cl [Example 144] | 7 (≈ 15800 nM) | 10 (≈ 22500 nM) |  | 
O=C(Nc1ccc(NC(=S)NCc2ccc3c(c2)OCO3)cc1)c1ccco1 [Example 546] | 1.7 (≈ 4300 nM) |  | 7 (≈ 17700 nM) | 
O=C(Nc1ccc(NC(=S)NCCCCc2ccccc2)cc1)c1csnn1 [Example 648] | >10 | 0.01 (≈ 24.3 nM) |  | 
COc1ccccc1CNC(=S)Nc1ccc(NC(=O)c2csnn2)cc1 [Example 650] | >10 | 0.05 (≈ 125 nM) |  | 
COc1ccccc1CCNC(=S)Nc1ccc(NC(=O)c2csnn2)cc1 [Example 651] | >10 | 0.03 (≈ 72.5 nM) |  | 
COc1ccc(CCNC(=S)Nc2ccc(NC(=O)c3csnn3)cc2)cc1 [Example 652] | >10 | 0.03 (≈ 72.5 nM) |  | 
CN(C)CCCc1cc(NC(=S)Nc2ccc(NC(=O)c3csnn3)cc2)cc(C(F)(F)F)c1 [Example 654] | >10 | 0.07 (≈ 138 nM) |  | 
O=C(Nc1ccc(NC(=S)NCCSc2ccccc2)cc1)c1csnn1 [Example 655] | >10 | 0.01 (≈ 24.1 nM) |  | 
O=C(Nc1ccc(NC(=S)NCCSc2ccccc2)cc1)c1ccco1 [Example 657] | 6 (≈ 15100 nM) | 0.04 (≈ 101 nM) |  | 
O=C(Nc1ccc(NC(=S)NCc2cccc(I)c2)cc1)c1ccco1 [Example 662] | >10 | 0.03 (≈ 62.8 nM) |  | 
O=C(Nc1ccc(NC(=S)NCc2cccc(I)c2)cc1)c1csnn1 [Example 663] | >10 | 0.01 (≈ 20.2 nM) |  | 
O=C(Nc1ccc(NC(=S)NCCOc2cc(Cl)cc(Cl)c2)cc1)c1ccco1 [Example 665] | 5 (≈ 11100 nM) | 0.02 (≈ 44.4 nM) |  | 
O=C(Nc1ccc(NC(=S)NCCOc2cccc(Cl)c2)cc1)c1ccco1 [Example 667] | 8 (≈ 19200 nM) | 0.03 (≈ 72.1 nM) |  | 
O=C(Nc1ccc(NC(=S)NCCOc2cccc(Cl)c2)cc1)c1csnn1 [Example 668] | >10 | 0.009 (≈ 20.7 nM) |  | 
O=C(Nc1ccc(NC(=S)NCc2cc(C(F)(F)F)ccc2F)cc1)c1ccco1 [Example 670] | >10 | 0.02 (≈ 45.7 nM) |  | 
O=C(Nc1ccc(NC(=S)NCc2cc(C(F)(F)F)ccc2F)cc1)c1csnn1 [Example 671] | >10 | 0.005 (≈ 11 nM) |  | 
O=C(Nc1ccc(NC(=S)NC(CO)c2ccccc2)cc1)c1csnn1 (stereo not drawn) [Example 726] | >10 |  |  | 
CC(C)(NC(=S)Nc1ccc(NC(=O)c2csnn2)cc1)c1ccccc1 [Example 728] | 9 (≈ 22600 nM) |  |  | 
CC(NC(=S)Nc1ccc(NC(=O)c2cscn2)cc1)c1ccccc1C(F)(F)F (stereo not drawn) [Example 845] |  | 0.0060 (≈ 13.3 nM) | >7.5 | 

SMILES | IC50 (ug/ml) HSV [1] [µg/mL] | IC50 (ug/ml) HCMV [2] [µg/mL] | IC50 (ug/ml) VZV [3] [µg/mL] | also measured
CC(NC(=S)Nc1ccc(NC(=O)c2cscn2)cc1)c1ccc(F)cc1F (stereo not drawn) [Example 846] |  | 0.0130 (≈ 31.1 nM) | 1.04 (≈ 2490 nM) | 
C[C@@H](NC(=S)Nc1ccc(NC(=O)c2cscn2)cc1)c1cc(C(F)(F)F)cc(C(F)(F)F)c1 [Example 847] |  | 0.0008 (≈ 1.54 nM) | >7.5 | 
CC(NC(=S)Nc1ccc(NC(=O)c2cscn2)cc1)c1ccc(Cl)c(Cl)c1 (stereo not drawn) [Example 848] |  | 0.002 (≈ 4.43 nM) | 0.19 (≈ 421 nM) | 
CC(NC(=S)Nc1ccc(NC(=O)c2cscn2)cc1)c1ccc(C(F)(F)F)c(F)c1 (stereo not drawn) [Example 849] |  | 0.002 (≈ 4.27 nM) | 1.82 (≈ 3880 nM) | 
CC(NC(=S)Nc1ccc(NC(=O)c2cscn2)cc1)c1ccc(Cl)c(C(F)(F)F)c1 (stereo not drawn) [Example 850] |  | 0.0008 (≈ 1.65 nM) | 2.33 (≈ 4800 nM) | 
CC(NC(=S)Nc1ccc(NC(=O)c2cscn2)cc1)c1ccc(Cl)cc1F (stereo not drawn) [Example 851] |  | 0.017 (≈ 39.1 nM) | 1.43 (≈ 3290 nM) | 
CC(NC(=S)Nc1ccc(NC(=O)c2cscn2)cc1)c1ccc(F)cc1C(F)(F)F (stereo not drawn) [Example 852] |  | 0.005 (≈ 10.7 nM) | >7.5 | 
CC(NC(=S)Nc1ccc(NC(=O)c2cscn2)cc1)c1ccc(Cl)c(F)c1 (stereo not drawn) [Example 853] |  | 0.004 (≈ 9.2 nM) | 0.62 (≈ 1430 nM) | 
CCC(NC(=S)Nc1ccc(NC(=O)c2csnn2)cc1)c1cc(C(F)(F)F)cc(C(F)(F)F)c1 (stereo not drawn) [Example 857] |  | 0.0006 (≈ 1.12 nM) | >7.5 | 
CCCC(NC(=S)Nc1ccc(NC(=O)c2csnn2)cc1)c1cc(C(F)(F)F)cc(C(F)(F)F)c1 (stereo not drawn) [Example 858] |  | 0.0007 (≈ 1.28 nM) | >7.5 | 
CCCCC(NC(=S)Nc1ccc(NC(=O)c2csnn2)cc1)c1cc(C(F)(F)F)cc(C(F)(F)F)c1 (stereo not drawn) [Example 859] |  | 0.00001 (≈ 0.0178 nM) | 0.5 (≈ 890 nM) | 
O=C(Nc1ccc(NC(=S)NC(c2ccccc2)c2cc(C(F)(F)F)cc(C(F)(F)F)c2)cc1)c1csnn1 (stereo not drawn) [Example 860] |  | 0.001 (≈ 1.72 nM) | >7.5 | 
CC(C)(NC(=S)Nc1ccc(NC(=O)c2csnn2)cc1)c1cc(C(F)(F)F)cc(C(F)(F)F)c1 [Example 861] |  | 0.002 (≈ 3.75 nM) | >7.5 | 
O=C(Nc1ccc(NC(=S)NCc2cc(C(F)(F)F)cc(C(F)(F)F)c2)cc1)c1c[nH]cn1 [Example 862] |  | 0.1 (≈ 205 nM) | >7.5 | 
CC(NC(=S)Nc1ccc(NC(=O)c2c[nH]cn2)cc1)c1ccc(F)cc1 (stereo not drawn) [Example 863] |  | 2.0 (≈ 5220 nM) | >7.5 | 
Cn1cnc(C(=O)Nc2ccc(NC(=S)NCc3cc(C(F)(F)F)cc(C(F)(F)F)c3)cc2)c1 [Example 864] |  | 0.5 (≈ 997 nM) | >7.5 | 
CCC(NC(=S)Nc1ccc(NC(=O)c2cscn2)cc1)c1cc(C(F)(F)F)cc(C(F)(F)F)c1 (stereo not drawn) [Example 865] |  | 0.0001 (≈ 0.188 nM) | >7.5 | 
CC(=O)Nc1ccc(NC(=S)Nc2ccc(C(C)O)c(Cl)c2)cc1 (stereo not drawn) [Example 913, N-(4-{3-[3-Chloro-4-(1-hydroxy-ethyl)-phenyl]-thioureido}-phenyl)-acetamide] |  |  |  | IC50 [2]: 0.056 µg/mL (≈ 154 nM); inhibition at 10 µg/mL [3]: 15%
CC(=O)Nc1ccc(NC(=S)Nc2ccc(-c3ccno3)c(Cl)c2)cc1 [Example 974, N-{4-[3-(3-Chloro-4-isoxazol-5-yl-phenyl)-thioureido]-phenyl} -acetamide] |  |  |  | IC50 [2]: 0.011 µg/mL (≈ 28.4 nM); inhibition at 10 µg/mL [3]: 14%
CC(=O)Nc1ccc(NC(=S)Nc2cc(Cl)cc(Cl)c2)cc1 [Example 983, N-{4-[3-(3,5-Dichloro-phenyl)-thioureido]-phenyl}-acetamide] |  |  |  | IC50 [2]: 0.12 µg/mL (≈ 339 nM); inhibition at 10 µg/mL [3]: 52%
